Data: US11985994B2, “Sweetener and flavor compositions, methods of making and methods of use thereof” (EPC Natural Products Co., Ltd., priority 2018, dated 2024)
Read-outs that look alike come from different tables or passages of the source. Residues, ends and D or L forms follow the SMILES beside them.

Assays:
[1] = Sensory evaluation (smell, color, taste) of Maillard reaction samples, Examples 52, 55-63; set-up: species or system human
Method: For evaluation of the taste profile, the samples were tested by a panel of four people. 1 trained taster tasted independently the samples first. The taster was asked to describe the taste profile and score 0-5 according to the increasing sugar likeness, bitterness, aftertaste and lingering taste profiles. The first taster was allowed to re-taste, and then make notes for the sensory attributes perceived. Afterwards, another 3 tasters tasted and the attributes were noted and discussed openly to find a suitable description. In case that more than 1 taster disagreed with the results, the tasting was repeated. In some sensory test results (above), the taste rating was expressed by “+”, which means the intensity of the factors is shown by three levels. “+” for slight, “++” for moderate and “+++” for very strong.
All samples were assessed at 22° C. after the Maillard reaction was stopped by placing the sealed vials in an ice bath. After 20 minutes in the ice bath the sealed vials were put in a water bath set to 22° C.
The odor/smell was assessed independently by 3 persons; the final description was agreed after discussion. […] The taste was assessed independently by 3 persons either in the original samples or after appropriate dilution to achieve relevant concentrations of sugars and steviol-glycosides (i.e. 5-9% SE); the final description was agreed after discussion.

[2] = as above; set-up: species or system human; conditions: before reaction, 10 ml KH2PO4 pH 7.8 (Example 57)
[3] = cited from earlier work
[4] = HPLC/DAD/MS analysis of reaction partners and MRI (Amadori) products; type: physicochemical; conditions: 120 °C; for consumption in the reaction with Phe: KH2PO4 pH 7.8, 2.5 h, glucose present or not
Method: Quantitative evaluation was performed using external standardization.

[5] = Sensory evaluation of GSGs and SGs, thaumatin, NHDC and combinations (Example 255); set-up: species or system human
Method: 4.5 ppm Thaumatin (equivalent to 10 ppm EPCalin) was dissolved in water. Increasing amounts of NHDC (1-5 ppm) were added to the solution and the sensory properties were evaluated.
50 ppm (GSGs and SGs) were dissolved in water. Increasing amounts of NHDC (1-5 ppm) were added to the solution and the sensory properties were evaluated.
50 ppm (GSGs and SGs) and 4.5 ppm Thaumatin (equivalent to 10 ppm EPCalin) were dissolved in water. Increasing amounts of NHDC (1-5 ppm) were added to the solution and the sensory properties were evaluated.
Sweetness intensity was rated on 5-point scale

[6] = Assay to test DPPH radical-scavenging activity (Example 65); type: physicochemical; conditions: combinations of amino acids and Reb-A, 100 °C; less pronounced than glucose or xylose
Method: 1 mg 1,1-Diphenyl-2-picrylhydrazyl radical (DPPH)/ml ethanol, dilution to assay concentration were prepared in ethanol (40 μg/mL); Calibration samples were prepared with Ascorbic acid in a concentration of 0-10 μg/mL, as a negative control sample, water was used.
Samples in aqueous solution were used as such or diluted with water.
A 0.1 ml sample (or calibration standard) was mixed with 3.9 ml solution of DPPH (100 μMolar) and reacted while protected from light at room temperature for 30 min. Absorbance was determined at 517 nm against ethanol.
10 mM of amino acid and/or 10 mM sugar were dissolved in 10 ml 0.1 mM KH2PO4-buffer, pH=7.8.
The samples were kept at 100° C. in sealed glass vials (Pyrex 15 ml with screw caps) for 0 (before reaction), 2.5 or 5.0 hours. Thereafter the samples were transferred to an ice water bath and cooled down to room temperature. These samples were diluted 1:10 and used for the test assay for anti-oxidant potential.

[7] = Table 52.2: 1 ml water + 9 ml Glycerin, 0.67 h, 100 °C
[8] = 1 ml water + 9 ml Glycerin, 2.0 h, 120 °C
[9] = Table 52.3: 1 ml water + 9 ml Glycerin, 0.67 h, 100 °C
[10] = negative controls (no carbohydrate source), 10 ml glycerin/water, 100 °C, 40 minutes
[11] = after reaction, 10 ml KH2PO4 pH 7.8, 2.5 h, 120 °C (Example 58)
[12] = before reaction, 10 ml KH2PO4 pH 7.8 (Example 58)
[13] = 1 ml water + 9 ml Glycerin, 1 h, 100 °C
[14] = depends on the tested concentration compared with sucrose
[15] = after reaction, 10 ml KH2PO4 pH 7.8, 2.5 h, 120 °C (Example 57)

Compound: C[C@H](N)C(=O)O [0.1 mMol Ala, Alanine]
- Color [1, 7]: No Color

Compound: O=C[C@H](O)[C@@H](O)[C@H](O)[C@H](O)C(=O)O [0.1 mMol Gluc Acid, Glucuronic Acid]
- Color [1, 8]: Almost black
- Intensity of Smell [1, 8]: +++
- Smell [1, 8]: burnt bread
- Taste [1, 8]: Bitter

Compound: O=C[C@H](O)[C@H]1OC(=O)[C@@H](O)[C@H]1O [0.1 mMol GlucLac, Glucuronolactone]
- Color [1, 8]: Almost black
- Intensity of Smell [1, 8]: +++
- Smell [1, 8]: Burnt sugar
- Taste [1, 8]: Bitter

Compound: NCCCC[C@H](N)C(=O)O [0.1 mMol Lys, Lysine]
- Color [1, 9]: Brown
- Smell [1, 9]: Popcorn
- Taste [1, 9]: Sweet

Compound: N[C@@H](Cc1ccccc1)C(=O)O [0.1 mMol Phe, Phenylalanine]
- Color [1, 8]: Slightly Yellow
- Intensity of Smell [1, 8]: +
- Smell [1, 8]: Caramel, burnt
- Taste [1, 8]: sweet
- Color [1, 7]: Slightly Yellow
- Smell [1, 7]: flowery/bloomy,
- Taste [1, 7]: sweet

Compound: C=C1C[C@@]23CC[C@H]4[C@@](C)(CCC[C@@]4(C)C(=O)O[C@@H]4O[C@H](CO)[C@@H](O)[C@H](O)[C@H]4O)[C@@H]2CC[C@]1(O[C@@H]1O[C@H](CO)[C@@H](O)[C@H](O[C@@H]2O[C@H](CO)[C@@H](O)[C@H](O)[C@H]2O)[C@H]1O[C@@H]1O[C@H](CO)[C@@H](O)[C@H](O)[C@H]1O)C3 [0.05 mMol Reb-A, Rebaudioside A]
- Color [1, 7]: Slightly Yellow

Compound: N[C@@H](Cc1ccccc1)C(=O)O [3.3 mMol Phe, Phenylalanine]
- Color ([1]; Glycerin 10 ml, 100 °C, 5 min): No color
- Smell ([1]; Glycerin 10 ml, 100 °C, 5 min): Slightly bloomy
- Color ([1]; Glycerin 10 ml, 100 °C, 10 min): No color
- Smell ([1]; Glycerin 10 ml, 100 °C, 10 min): flowery/bloomy
- Color ([1]; Glycerin 10 ml, 100 °C, 20 min): Slightly Yellow
- Smell ([1]; Glycerin 10 ml, 100 °C, 20 min): flowery/bloomy
- Color ([1]; Glycerin 10 ml, 100 °C, 40 min): Yellow-slightly
- Smell ([1]; Glycerin 10 ml, 100 °C, 40 min): flowery/bloomy
- Color ([1]; Glycerin 10 ml, 1 h, 120 °C): Brown
- Smell ([1]; Glycerin 10 ml, 1 h, 120 °C): flowery/bloomy

Compound: C[C@H](N)C(=O)O [8.91 mg Ala, Alanine]
- Color [1, 10]: No color
- Smell [1, 10]: Neutral, slightly Agar
- Taste [1, 10]: Slightly sweet

Compound: O=C[C@H](O)[C@@H](O)[C@H](O)CO [10 mmol Xyl, Xylose]
- Color ([1]; Glycerin 10 ml, 100 °C, 40 min): Slightly Yellow
- Smell ([1]; Glycerin 10 ml, 100 °C, 40 min): Slightly Popcorn
- Color ([1]; Glycerin 10 ml, 1 h, 120 °C): No color
- Smell ([1]; Glycerin 10 ml, 1 h, 120 °C): neutral

Compound: N[C@@H](CO)C(=O)O [10.5 mg Ser, Serine]
- Color [1, 10]: Slightly Yellow
- Smell [1, 10]: Lotus flower
- Taste [1, 10]: Slightly sweet

Compound: O=C(O)[C@@H]1CCCN1 [11.5 mg Pro, Proline]
- Color [1, 10]: Slightly Yellow
- Smell [1, 10]: Neutral, slightly
- Taste [1, 10]: Slightly sweet

Compound: C[C@@H](O)[C@H](N)C(=O)O [11.91 mg Thr, Threonine]
- Color [1, 10]: Very Slightly
- Smell [1, 10]: Vanilla, butter
- Taste [1, 10]: Slightly sweet

Compound: N[C@@H](CS)C(=O)O [12.1 mg Cys, Cysteine]
- Color [1, 10]: Slightly Yellow
- Smell [1, 10]: Unpleasant (sulfur)
- Taste [1, 10]: Slightly sweet

Compound: CC[C@H](C)[C@H](N)C(=O)O [13.11 mg Ile, Isoleucine]
- Color [1, 10]: No color
- Smell [1, 10]: Coffee
- Taste [1, 10]: Slightly sweet

Compound: NCCCC[C@H](N)C(=O)O [14.7 mg Lys, Lysine]
- Color [1, 10]: brown
- Smell [1, 10]: Popcorn
- Taste [1, 10]: Slightly sweet

Compound: CSCC[C@H](N)C(=O)O [14.9 mg Met, Methionine]
- Color [1, 10]: Very Slightly
- Smell [1, 10]: Sulfuric
- Taste [1, 10]: Slightly sweet

Compound: N[C@@H](Cc1ccccc1)C(=O)O [16.5 mg Phe, Phenylalanine]
- Color [1, 11]: Slightly Yellow
- Smell [1, 11]: Caramel, burnt
- Taste ([1]; after reaction, after dilution 1:20 (Example 58)): Sweet
- Color [1, 12]: No color
- Smell [1, 12]: Neutral
- Taste ([1]; before reaction, after dilution 1:20 (Example 58)): No taste
- Color [1, 10]: Very Slightly
- Smell [1, 10]: Bloomy, caramel
- Taste [1, 10]: Slightly sweet
- Color [2]: No color
- Smell [2]: neutral
- Taste [2]: No taste

Compound: O=C[C@H](O)[C@@H](O)[C@H](O)[C@H](O)C(=O)O [18 mg Glucuronic Acid, Glucuronic Acid]
- Color [2]: No color
- Smell [2]: neutral
- Taste [2]: No taste

Compound: N[C@@H](Cc1ccc(O)cc1)C(=O)O [18.1 mg Tyr, Tyrosine]
- Color [1, 10]: No color
- Smell [1, 10]: neutral
- Taste [1, 10]: Slightly sweet

Compound: N[C@@H](Cc1c[nH]c2ccccc12)C(=O)O [20.42 mg Try, Tryptophan]
- Color [1, 10]: Slightly Yellow
- Smell [1, 10]: Unpleasant (fecal)
- Taste [1, 10]: Slightly sweet

Compound: O=C[C@H](O)[C@@H](O)[C@H](O)CO [167 mMol Xyl, Xylose]
- Color [1, 13]: No color
- Smell [1, 13]: neutral/meat
- Taste [1, 13]: Sweet

Compound: COC(=O)[C@H](Cc1ccccc1)NC(=O)[C@@H](N)CC(=O)O [Aspartame] (H-Asp-Phe-OMe)
- sweetness [3, 14]: 160-200 times sweeter than sucrose

Compound: O=C[C@H](O)[C@@H](O)[C@H](O)[C@H](O)C(=O)O [Glucuronic Acid]
- Color [1, 15]: Deep Yellow
- Smell [1, 15]: burnt bread
- Taste [1, 15]: Bitter
- consumption in the reaction with Phe [4]: completely consumed

Compound: O=C[C@H](O)[C@H]1OC(=O)[C@@H](O)[C@H]1O [Glucuronolactone]
- Color [1, 15]: Deep Yellow
- Smell [1, 15]: Burnt sugar
- Taste [1, 15]: Bitter
- consumption in the reaction with Phe [4]: completely consumed

Compound: COc1ccc(CCC(=O)c2c(O)cc(O[C@@H]3O[C@H](CO)[C@@H](O)[C@H](O)[C@H]3O[C@@H]3O[C@@H](C)[C@H](O)[C@@H](O)[C@H]3O)cc2O)cc1O [NHDC, Neohesperidin dihydrochalcone]
- lingering ([5]; 4, 5 ppm added to 50 ppm GSGs and SGs and 4.5 ppm Thaumatin): boosts the lingering
- lingering ([5]; 4 and 5 ppm added to 4.5 ppm Thaumatin in water): long lasting lingering
- sweetness ([3]; at threshold concentrations): 1500-1800 times sweeter than sugar
- sweetness ([3]; weight-for-weight): about 340 times sweeter than sugar

Compound: N[C@@H](Cc1ccccc1)C(=O)O [Phe 60 mMol, Phenylalanine]
- Color [1, 13]: Slightly Yellow
- Smell [1, 13]: flowery/bloomy-caramel
- Taste [1, 13]: Sweet

Compound: C=C1C[C@@]23CC[C@H]4[C@@](C)(CCC[C@@]4(C)C(=O)O[C@@H]4O[C@H](CO)[C@@H](O)[C@H](O)[C@H]4O)[C@@H]2CC[C@]1(O[C@@H]1O[C@H](CO)[C@@H](O)[C@H](O[C@@H]2O[C@H](CO)[C@@H](O)[C@H](O)[C@H]2O)[C@H]1O[C@@H]1O[C@H](CO)[C@@H](O)[C@H](O)[C@H]1O)C3 [Reb-A, Rebaudioside A]
- anti-oxidant properties [6]: substantial anti-oxidant properties

Compound: O=C[C@H](O)[C@@H](O)[C@H](O)CO [Xyl, Xylose]
- % degradation ([4]; Phe + Xyl, pH = 7.0, 1.0 h): 6.3%

Compound: O=S(=O)([O-])NC1CCCCC1.[Na+] [sodium cyclamate]
- sweetness [3, 14]: about 30 times sweeter than sucrose

Compound: OC[C@H]1O[C@H](O[C@]2(CCl)O[C@H](CCl)[C@@H](O)[C@@H]2O)[C@H](O)[C@@H](O)[C@H]1Cl [sucralose]
- sweetness [3, 14]: about 600 times sweeter than sucrose

Compound: MoneIlin
- Sweetness by weight ([3]; compared to sucrose): 800-2,000
